Patent US20220315567A1 (priority 2016, published 2022)
pEC50: −log10 of the molar value. Structures can show the parent of a compound that is named as a salt. Where two headings read alike, the source gives them in different places.

Assays:
human OPRM1 (μ, MOR) [1] = target: T1, human OPRM1 (μ, MOR) (Homo sapiens, UniProt P35372); format: cell-based; settings: for ΔRA of compound: relative activity from EC50 and Emax of β-arrestin vs cAMP, lower RA = more G-protein biased
T1 construct: host or cells: CHO-K1
Procedure: In certain embodiments, the ability of a compound to activate G-protein or β-arrestin is not an on/off switch for a given pathway, but rather a continuous function. To capture this, each compound is measured for activity in cell assays that are linked to β-arrestin recruitment and G-protein signaling. By comparing the activity between these two measures (accounting for both EC50 and maximal response reached, Emax) a relative activity (RA) value is determined.
In the case of MOR it is desirable to have high activation of the G-protein pathway while reducing activation of β-arrestin. In the case of the formula above, this means a lower RA.

human OPRM1 (μ, MOR) [2] = target: T1, human OPRM1 (μ, MOR); assay: cell-based; settings: for Emax: OPRM1, read-out: β-Arrestin Emax; for pEC50: PathHunter human OPRM1 Arrestin CHO-K1 cell line, read-out: β-Arrestin EC50
Procedure: The Discoverx PathHunter® β-Arrestin assay is used to measure β-arrestin-2 activity. The technology is based on Enzyme Fragment Complementation (EFC) with β-galactosidase (β-Gal) as the reporter. […] EA is fused to Q-arrestin-2, and ED is fused to the C-terminus of the GPCR of interest. When a ligand binds and the GPCR is activated, Q-arrestin-2 is recruited to the receptor resulting in an ED/EA complementation, restoring f-Gal activity, which is measured using chemiluminescence. For this assay, the PathHunter human OPRM1 (μ, MOR) Arrestin CHO-K1 cell line was used.

human OPRM1 (μ, MOR) [3] = target: T1, human OPRM1 (μ, MOR); assay: cell-based; settings: for Emax: OPRM1, read-out: cAMP Emax; for pEC50: PathHunter human OPRM1 Arrestin CHO-K1 cell line, read-out: cAMP EC50
Procedure: G-protein signaling was measured via second messenger cAMP modulation. Detection of cAMP modulation was accomplished in the PathHunter human OPRM1 (μ, MOR) Arrestin CHO-K1 cell line using the Dynamic2 cAMP Kit from Cisbio.

T1 sequence (P35372 whole entry): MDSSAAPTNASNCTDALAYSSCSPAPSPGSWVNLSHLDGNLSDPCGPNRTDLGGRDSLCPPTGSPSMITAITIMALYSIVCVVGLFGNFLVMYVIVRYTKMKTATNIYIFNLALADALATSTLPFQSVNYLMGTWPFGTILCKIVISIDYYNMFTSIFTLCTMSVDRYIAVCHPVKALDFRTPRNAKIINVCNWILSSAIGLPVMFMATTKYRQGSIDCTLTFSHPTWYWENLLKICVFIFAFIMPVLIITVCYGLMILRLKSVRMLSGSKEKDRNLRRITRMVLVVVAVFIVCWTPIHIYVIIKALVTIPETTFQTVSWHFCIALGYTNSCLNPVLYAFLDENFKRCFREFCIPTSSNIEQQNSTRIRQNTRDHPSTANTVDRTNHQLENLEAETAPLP

| SMILES | melting point | Bias Factor (ΔRA of compound relative to ΔRA of DAMGO) × 10 (human OPRM1 (μ, MOR) [1]) | ΔRA of compound (human OPRM1 (μ, MOR) [1]) | Emax (human OPRM1 (μ, MOR) [2]) [%] | pEC50 (human OPRM1 (μ, MOR) [2]) | Emax (human OPRM1 (μ, MOR) [3]) [%] | pEC50 (human OPRM1 (μ, MOR) [3]) | β-Arrestin Emax (human OPRM1 (μ, MOR) [2]) [%] | cAMP Emax (human OPRM1 (μ, MOR) [3]) [%] |
| --- | --- | --- | --- | --- | --- | --- | --- | --- | --- |
| CN(C)C(CNC(=O)NC1CCc2ccccc2C1)c1ccccc1 (stereo not drawn) (as salt: hydrochloride) [Compound 19a, 1-(2-(Dimethylamino)-2-phenylethyl)-3-(1,2,3,4-tetrahydronaphthalen-2-yl)urea hydrochloride] | 160 to 161 °C | – | – | – | – | – | – | – | – |
| CN(C)C(CNC(=O)NC1CCc2ccccc2C1)c1ccsc1 (stereo not drawn) (as salt: hydrochloride) [Compound 10a, 1-(2-(Dimethylamino)-2-(thiophen-3-yl)ethyl)-3-(1,2,3,4-tetrahydronaphthalen-2-yl)urea hydrochloride] | 151 to 153 °C | – | – | – | – | – | – | – | – |
| Cc1ccc2c(c1)CN(C(=O)NCC(c1ccsc1)N(C)C)C2 (stereo not drawn) (as salt: hydrochloride) [Compound 12a, N-(2-(Dimethylamino)-2-(thiophen-3-yl)ethyl)-5-methylisoindoline-2-carboxamide hydrochloride] | 200 to 202 °C (dec.) | – | – | – | – | – | – | – | – |
| COc1ccc2c(c1)CN(C(=O)NCC(c1ccsc1)N(C)C)C2 (stereo not drawn) (as salt: hydrochloride) [Compound 5a, N-(2-(Dimethylamino)-2-(thiophen-3-yl)ethyl)-5-methoxyisoindoline-2-carboxamide hydrochloride] | 210 to 215 °C (dec.) | – | – | – | – | – | – | – | – |
| COc1ccc(C(CNC(=O)N2Cc3ccc(F)cc3C2)N(C)C)cc1 (stereo not drawn) (as salt: hydrochloride) [Compound 16a, N-(2-(Dimethylamino)-2-(4-methoxyphenyl)ethyl)-5-fluoroisoindoline-2-carboxamide hydrochloride] | 145 to 149 °C (dec.) | – | – | – | – | – | – | – | – |
| CN(C)C(CNC(=O)N1Cc2ccccc2C1)c1ccc(F)cc1Cl (stereo not drawn) (as salt: hydrochloride) [Compound 14a, N-(2-(2-Chloro-4-fluorophenyl)-2-(dimethylamino)ethyl)isoindoline-2-carboxamide hydrochloride] | 147 to 149 °C | – | – | – | – | – | – | – | – |
| CN(C)C(CNC(=O)N1Cc2ccc(O)cc2C1)c1ccsc1 (stereo not drawn) (as salt: hydrobromid) [Compound 22, N-(2-(Dimethylamino)-2-(thiophen-3-yl)ethyl)-5-hydroxyisoindoline-2-carboxamide hydrobromide] | 134 °C (dec.) | – | – | – | – | – | – | – | – |
| COc1ccc(C(CNC(=O)N2Cc3ccccc3C2)N(C)C)cc1 (stereo not drawn) (as salt: hydrochloride) [Compound 15a, N-(2-(Dimethylamino)-2-(4-methoxyphenyl)ethyl)isoindoline-2-carboxamide hydrochloride] | 149 to 151 °C (dec.) | – | – | – | – | – | – | – | – |
| CN(C)C(CNC(=O)N1Cc2ccc(F)cc2C1)c1ccsc1 (single isomer, unassigned) (as salt: hydrochloride) [2a-ent-(+), (+)—N-(2-(Dimethylamino)-2-(thiophen-3-yl)ethyl)-5-fluoroisoindoline-2-carboxamide hydrochloride] | 150 to 155 °C (dec.) | – | – | – | – | – | – | – | – |
| CN(C)C(CNC(=O)N1Cc2ccccc2C1)c1ccccc1 (stereo not drawn) (as salt: hydrochloride) [Compound 18a, N-(2-(Dimethylamino)-2-phenylethyl)isoindoline-2-carboxamide hydrochloride] | 107 to 108 °C | – | – | – | – | – | – | – | – |
| CN(C)C(CNC(=O)N(C)C1CCCc2ccccc21)c1ccsc1 (stereo not drawn) (as salt: hydrochloride) [Compound 13a, 3-(2-(Dimethylamino)-2-(thiophen-3-yl)ethyl)-1-methyl-1-(1,2,3,4-tetrahydronaphthalen-1-yl)urea hydrochloride] | 188 to 190 °C | – | – | – | – | – | – | – | – |
| CN(C)C(CNC(=O)N1Cc2ccc(F)cc2C1)c1ccc(F)cc1Cl (stereo not drawn) (as salt: hydrochloride) [Compound 17a, N-(2-(2-Chloro-4-fluorophenyl)-2-(dimethylamino)ethyl)-5-fluoroisoindoline-2-carboxamide hydrochloride] | 173 to 174 °C (dec.) | – | – | – | – | – | – | – | – |
| CN(C)C(CNC(=O)N1Cc2cccc(F)c2C1)c1ccsc1 (stereo not drawn) (as salt: hydrochloride) [Compound 3a, N-(2-(Dimethylamino)-2-(thiophen-3-yl)ethyl)-4-fluoroisoindoline-2-carboxamide hydrochloride] | 150 to 155 °C (dec.) | – | – | – | – | – | – | – | – |
| CN(C)C(CNC(=O)N1Cc2ccc(Cl)cc2C1)c1ccsc1 (stereo not drawn) (as salt: hydrochloride) [Compound 4a, 5-Chloro-N-(2-(dimethylamino)-2-(thiophen-3-yl)ethyl)isoindoline-2-carboxamide hydrochloride] | 210 to 215 °C (dec.) | – | – | – | – | – | – | – | – |
| CNC(CNC(=O)N1Cc2ccccc2C1)c1ccccc1 (stereo not drawn) [Compound 38, N-(2-(methylamino)-2-phenylethyl)isoindoline-2-carboxamide] | – | −12.56 | −2.74 | 6.6 | 5.78 | 95.9 | 7.35 | – | – |
| CN(C)C(CNC(=O)N1Cc2ccccc2C1)c1ccccc1 (single isomer, unassigned) [Compound 58] | – | −1.66 | −1.65 | – | 5.72 | – | 6.88 | 35.2 | 109.1 |
| CN(C)C(CNC(=O)N1Cc2ccccc2C1)c1ccccc1 (single isomer, unassigned) [Compound 57] | – | <−14.83 | <−2.96 | – | < 4.00 | 89.4 | 7.14 | <1 | – |
| CNC(CNC(=O)N1Cc2ccc(F)cc2C1)c1ccc(OC)cc1 (stereo not drawn) [Compound 83] | – | <−14.83 | <−2.96 | – | < 4.00 | – | 7.24 | 13.4 | 100.1 |
| CN(C)C(CNC(=O)N(C)[C@H]1CCCc2ccccc21)c1ccsc1 (stereo partly drawn) [Compound 39] | – | −1.90 | −1.67 | 10.9 | 6.19 | 93.4 | 6.93 | – | – |
| CN(C)C(CNC(=O)NC1CCCc2ccccc21)c1ccsc1 (stereo not drawn) (as salt: hydrochloride) [Compound 11a, 1-(2-(Dimethylamino)-2-(thiophen-3-yl)ethyl)-3-(1,2,3,4-tetrahydronaphthalen-1-yl)urea hydrochloride] | 179 to 181 °C | – | – | – | – | – | – | – | – |
| CNC(CNC(=O)N1Cc2ccccc2C1)c1ccsc1 (stereo not drawn) [Compound 79] | – | <−14.83 | <−2.96 | – | < 4.00 | – | 7.06 | 1.7 | 64.2 |
| CN(C)C(CNC(=O)N1Cc2cccc(F)c2C1)c1ccsc1 (stereo not drawn) [Compound 3a, N-(2-(Dimethylamino)-2-(thiophen-3-yl)ethyl)-4-fluoroisoindoline-2-carboxamide hydrochloride] | – | −5.07 | −1.99 | 21.9 | 6.51 | 94.2 | 7.85 | – | – |
| CN(C)[C@@H](CCNC(=O)N1Cc2ccc(F)cc2C1)c1ccsc1 [Compound 30-S, (S)—N-(3-(Dimethylamino)-3-(thiophen-3-yl)propyl)-5-fluoroisoindoline-2-carboxamide] | – | <−14.83 | <−2.96 | 9.9 | < 4.00 | 96.1 | 6.16 | – | – |
| CN(C)C(CNC(=O)NC1CCc2ccccc2C1)c1ccccc1 (stereo not drawn) [Compound 19a, 1-(2-(Dimethylamino)-2-phenylethyl)-3-(1,2,3,4-tetrahydronaphthalen-2-yl)urea hydrochloride] | – | <−14.83 | <−2.96 | 2.34 | < 4.00 | 86.1 | 7.49 | – | – |
| CN(C)[C@@H](CCNC(=O)N1CC[C@@H](c2ccccc2)C1)c1ccsc1 [Compound 77] | – | <−14.83 | <−2.96 | < 1 | < 4.00 | 33.2 | 5.96 | – | – |
| CNC(CNC(=O)N1Cc2ccccc2C1)c1ccccc1 (single isomer, unassigned; (-)) [Compound 38-ent-A, (−)-N-(2-(Methylamino)-2-phenylethyl)isoindoline-2-carboxamide] | – | <−14.83 | <−2.96 | 3.7 | < 4.00 | 81.6 | 6.42 | – | – |
| CNC(CNC(=O)N1Cc2ccc(F)cc2C1)c1ccc(OC)cc1 (stereo not drawn) [Compound 82] | – | <−14.83 | <−2.96 | – | < 4.00 | 83.2 | 6.34 | 2.7 | – |
